Reference: patent publication US12681015B2, “Methods for predicting patient response to DMARDs” (Queen Mary University of London, priority 2019, dated 2026)

System: plasma SPM concentrations in mice
Test: MTX given intravenously to mice, plasma SPM by LC-MS/MS lipid mediator profiling
Format: in vivo
Details: blood after 1 hour; for plasma 4S,14S-diHDHA concentration in mice, Mean ± SEM / plasma 5S,15S-diHETE concentration in mice, Mean ± SEM / plasma 7S,14S-diHDHA concentration in mice, Mean ± SEM / plasma 7S,14S-diHDPA concentration in mice, Mean ± SEM / plasma 10S,17S-diHDPA concentration in mice, Mean ± SEM / plasma 13,14-dehydro-15-oxo-LXA4 concentration in mice, Mean ± SEM / plasma 14-oxo-MaR1 concentration in mice, Mean ± SEM / plasma 15-oxo-LXA4 concentration in mice, Mean ± SEM / plasma 15R-LXA4 concentration in mice, Mean ± SEM / plasma 15R-LXB4 concentration in mice, Mean ± SEM / plasma 17R-PD1 concentration in mice, Mean ± SEM / plasma 17R-RvD1 concentration in mice, Mean ± SEM / plasma 17R-RvD3 concentration in mice, Mean ± SEM / plasma 22-OH-MaR1 concentration in mice, Mean ± SEM / plasma 22-OH-PD1 concentration in mice, Mean ± SEM / plasma LXA4 concentration in mice, Mean ± SEM / plasma LXB4 concentration in mice, Mean ± SEM / plasma MaR1 concentration in mice, Mean ± SEM / plasma MaR1n-3 DPA concentration in mice, Mean ± SEM / plasma MaR2 concentration in mice, Mean ± SEM / plasma PD1 concentration in mice, Mean ± SEM / plasma PD1n-3 DPA concentration in mice, Mean ± SEM / plasma PDx concentration in mice, Mean ± SEM / plasma RvD1 concentration in mice, Mean ± SEM / plasma RvD1n-3 DPA concentration in mice, Mean ± SEM / plasma RvD2 concentration in mice, Mean ± SEM / plasma RvD2n-3 DPA concentration in mice, Mean ± SEM / plasma RvD3 concentration in mice, Mean ± SEM / plasma RvD4 concentration in mice, Mean ± SEM / plasma RvD5 concentration in mice, Mean ± SEM / plasma RvD5n-3 DPA concentration in mice, Mean ± SEM / plasma RvD6 concentration in mice, Mean ± SEM / plasma RvE1 concentration in mice, Mean ± SEM / plasma RvE2 concentration in mice, Mean ± SEM / plasma RvE3 concentration in mice, Mean ± SEM / plasma RvT1 concentration in mice, Mean ± SEM / plasma RvT2 concentration in mice, Mean ± SEM / plasma RvT3 concentration in mice, Mean ± SEM / plasma RvT4 concentration in mice, Mean ± SEM: intravenous injection
Experimental: Plasma was obtained by centrifugation and peripheral blood SPM concentrations were determined using LC-MS/MS based lipid mediator profiling. (A) OPLS-DA analysis of plasma SPM concentrations. Colored spherical areas display 95% confidence region of respective incubations. […] Results for A, B are representative of n=6 donors from three distinct experiments. […] Blood was then collected after 1 hour and SPM concentrations were determined using LC-MS/MS based lipid mediator profiling (D) oPLS-DA analysis of plasma SPM concentrations. Colored areas display 95% confidence region of respective incubations. […] Results are representative of n=4 mice per group and experiments were conducted on two distinct occasions.
Plasma was obtained from peripheral blood of healthy volunteers, patients and mouse following centrifugation at 1500×g for 10 min at room temperature. Paws were collected and immediately transferred to liquid nitrogen prior to homogenization in 1 ml ice cold MeOH and homogenized using a glass dounce. All samples for LC-MS/MS-based profiling were extracted using solid-phase extraction columns as in Walker, M. E., Souza, P. R., Colas, R. A. & Dalli, J. “13-Series resolvins mediate the leukocyte-platelet actions of atorvastatin and pravastatin in inflammatory arthritis.” FASEB J 31, 3636-3648 (2017), the contents of which are incorporated herein by reference. Prior to sample extraction, deuterated internal standards, representing each region in the chromatographic analysis (500 pg each) were added to facilitate quantification. Samples were kept at −20° C. for a minimum of 45 min to allow protein precipitation. Supernatants were subjected to solid phase extraction, methyl formate fraction collected, brought to dryness and suspended in phase (methanol/water, 1:1, vol/vol) for injection on a Shimadzu LC-20AD HPLC and a Shimadzu SIL-20AC autoinjector, paired with a QTrap 5500 or QTrap 6500 plus (Sciex). An Agilent Poroshell 120 EC-C18 column (100 mm×4.6 mm×2.7 μm) was kept at 50° C. and mediators eluted using a mobile phase consisting of methanol/water/acetic acid of 20:80:0.01 (vol/vol/vol) that was ramped to 50:50:0.01 (vol/vol/vol) over 0.5 min and then to 80:20:0.01 (vol/vol/vol) from 2 min to 11 min, maintained till 14.5 min and then rapidly ramped to 98:2:0.01 (vol/vol/vol) for the next 0.1 min. This was subsequently maintained at 98:2:0.01 (vol/vol/vol) for 5.4 min, and the flow rate was maintained at 0.5 ml/min. QTrap 5500 or QTrap 6500 plus were operated using a multiple reaction monitoring method as in Walker, M. E., Souza, P. R., Colas, R. A. & Dalli, J. “13-Series resolvins mediate the leukocyte-platelet actions of atorvastatin and pravastatin in inflammatory arthritis.” FASEB J 31, 3636-3648 (2017), the contents of which are incorporated herein by reference. Each lipid mediator was identified using established criteria including matching retention time to synthetic or authentic standards and at least 6 diagnostic ions (Walker, M. E., Souza, P. R., Colas, R. A. & Dalli, J. “13-Series resolvins mediate the leukocyte-platelet actions of atorvastatin and pravastatin in inflammatory arthritis.” FASEB J 31, 3636-3648 (2017), the contents of which are incorporated herein by reference).

[1] = mice, MTX 1 μg/mouse or 22 μg/mouse intravenous

CN(Cc1cnc2nc(N)nc(N)c2n1)c1ccc(C(=O)N[C@@H](CCC(=O)O)C(=O)O)cc1 [MTX, Methotrexate]
plasma 4S,14S-diHDHA concentration in mice, Mean ± SEM (1 μg/mouse): 18.38 ± 6.59 | plasma 5S,15S-diHETE concentration in mice, Mean ± SEM (1 μg/mouse): 14.61 ± 6.53 | plasma 7S,14S-diHDHA concentration in mice, Mean ± SEM (1 μg/mouse): 0.00 ± 0.00 | plasma 7S,14S-diHDPA concentration in mice, Mean ± SEM (1 μg/mouse): 0.00 ± 0.00 | plasma 10S,17S-diHDPA concentration in mice, Mean ± SEM (1 μg/mouse): 2.41 ± 0.97 | plasma 13,14-dehydro-15-oxo-LXA4 concentration in mice, Mean ± SEM (1 μg/mouse): 0.65 ± 0.21 | plasma 14-oxo-MaR1 concentration in mice, Mean ± SEM (1 μg/mouse): 3.44 ± 0.37 | plasma 15-oxo-LXA4 concentration in mice, Mean ± SEM (1 μg/mouse): 3.53 ± 1.62 | plasma 15R-LXA4 concentration in mice, Mean ± SEM (1 μg/mouse): 6.41 ± 0.78 | plasma 15R-LXB4 concentration in mice, Mean ± SEM (1 μg/mouse): 3.90 ± 1.80 | plasma 17R-PD1 concentration in mice, Mean ± SEM (1 μg/mouse): 10.50 ± 4.91 | plasma 17R-RvD1 concentration in mice, Mean ± SEM (1 μg/mouse): 0.00 ± 0.00 | plasma 17R-RvD3 concentration in mice, Mean ± SEM (1 μg/mouse): 4.26 ± 0.87 | plasma 22-OH-MaR1 concentration in mice, Mean ± SEM (1 μg/mouse): 0.00 ± 0.00 | plasma 22-OH-PD1 concentration in mice, Mean ± SEM (1 μg/mouse): 0.00 ± 0.00 | plasma LXA4 concentration in mice, Mean ± SEM (1 μg/mouse): 1.06 ± 0.20 | plasma LXB4 concentration in mice, Mean ± SEM (1 μg/mouse): 16.93 ± 1.92 | plasma MaR1 concentration in mice, Mean ± SEM (1 μg/mouse): 71.74 ± 20.71 | plasma MaR1n-3 DPA concentration in mice, Mean ± SEM (1 μg/mouse): 0.83 ± 0.34 | plasma MaR2 concentration in mice, Mean ± SEM (1 μg/mouse): 2.05 ± 0.39 | plasma PD1 concentration in mice, Mean ± SEM (1 μg/mouse): 10.13 ± 4.31 | plasma PD1n-3 DPA concentration in mice, Mean ± SEM (1 μg/mouse): 0.00 ± 0.00 | plasma PDx concentration in mice, Mean ± SEM (1 μg/mouse): 17.23 ± 1.32 | plasma RvD1 concentration in mice, Mean ± SEM (1 μg/mouse): 1.39 ± 0.59 | plasma RvD1n-3 DPA concentration in mice, Mean ± SEM (1 μg/mouse): 0.67 ± 0.35 | plasma RvD2 concentration in mice, Mean ± SEM (1 μg/mouse): 2.60 ± 1.05 | plasma RvD2n-3 DPA concentration in mice, Mean ± SEM (1 μg/mouse): 4.54 ± 1.98 | plasma RvD3 concentration in mice, Mean ± SEM (1 μg/mouse): 1.30 ± 0.56 | plasma RvD4 concentration in mice, Mean ± SEM (1 μg/mouse): 3.70 ± 0.70 | plasma RvD5 concentration in mice, Mean ± SEM (1 μg/mouse): 1.64 ± 0.67 | plasma RvD5n-3 DPA concentration in mice, Mean ± SEM (1 μg/mouse): 4.02 ± 0.79 | plasma RvD6 concentration in mice, Mean ± SEM (1 μg/mouse): 1.72 ± 0.72 | plasma RvE1 concentration in mice, Mean ± SEM (1 μg/mouse): 0.54 ± 0.25 | plasma RvE2 concentration in mice, Mean ± SEM (1 μg/mouse): 1.70 ± 0.52 | plasma RvE3 concentration in mice, Mean ± SEM (1 μg/mouse): 6.22 ± 1.39 | plasma RvT1 concentration in mice, Mean ± SEM (1 μg/mouse): 10.18 ± 2.01 | plasma RvT2 concentration in mice, Mean ± SEM (1 μg/mouse): 0.00 ± 0.00 | plasma RvT3 concentration in mice, Mean ± SEM (1 μg/mouse): 0.63 ± 0.28 | plasma RvT4 concentration in mice, Mean ± SEM (1 μg/mouse): 1.40 ± 0.64 | plasma 4S,14S-diHDHA concentration in mice, Mean ± SEM (22 μg/mouse): 1.43 ± 0.64 | plasma 5S,15S-diHETE concentration in mice, Mean ± SEM (22 μg/mouse): 12.65 ± 5.37 | plasma 7S,14S-diHDHA concentration in mice, Mean ± SEM (22 μg/mouse): 22.10 ± 8.55 | plasma 7S,14S-diHDPA concentration in mice, Mean ± SEM (22 μg/mouse): 0.64 ± 0.55 | plasma 10S,17S-diHDPA concentration in mice, Mean ± SEM (22 μg/mouse): 0.52 ± 0.45 | plasma 13,14-dehydro-15-oxo-LXA4 concentration in mice, Mean ± SEM (22 μg/mouse): 0.20 ± 0.15 | plasma 14-oxo-MaR1 concentration in mice, Mean ± SEM (22 μg/mouse): 0.81 ± 0.41 | plasma 15-oxo-LXA4 concentration in mice, Mean ± SEM (22 μg/mouse): 3.93 ± 1.01 | plasma 15R-LXA4 concentration in mice, Mean ± SEM (22 μg/mouse): 6.20 ± 1.44 | plasma 15R-LXB4 concentration in mice, Mean ± SEM (22 μg/mouse): 2.17 ± 0.89 | plasma 17R-PD1 concentration in mice, Mean ± SEM (22 μg/mouse): 1.41 ± 0.61 | plasma 17R-RvD1 concentration in mice, Mean ± SEM (22 μg/mouse): 0.26 ± 0.30 | plasma 17R-RvD3 concentration in mice, Mean ± SEM (22 μg/mouse): 0.67 ± 0.65 | plasma 22-OH-MaR1 concentration in mice, Mean ± SEM (22 μg/mouse): 0.00 ± 0.00 | plasma 22-OH-PD1 concentration in mice, Mean ± SEM (22 μg/mouse): 0.00 ± 0.00 | plasma LXA4 concentration in mice, Mean ± SEM (22 μg/mouse): 0.56 ± 0.15 | plasma LXB4 concentration in mice, Mean ± SEM (22 μg/mouse): 12.72 ± 1.68 | plasma MaR1 concentration in mice, Mean ± SEM (22 μg/mouse): 37.97 ± 11.63 | plasma MaR1n-3 DPA concentration in mice, Mean ± SEM (22 μg/mouse): 0.00 ± 0.00 | plasma MaR2 concentration in mice, Mean ± SEM (22 μg/mouse): 1.28 ± 0.72 | plasma PD1 concentration in mice, Mean ± SEM (22 μg/mouse): 9.99 ± 2.47 | plasma PD1n-3 DPA concentration in mice, Mean ± SEM (22 μg/mouse): 0.28 ± 0.24 | plasma PDx concentration in mice, Mean ± SEM (22 μg/mouse): 10.36 ± 2.79 | plasma RvD1 concentration in mice, Mean ± SEM (22 μg/mouse): 0.14 ± 0.12 | plasma RvD1n-3 DPA concentration in mice, Mean ± SEM (22 μg/mouse): 0.33 ± 0.48 | plasma RvD2 concentration in mice, Mean ± SEM (22 μg/mouse): 2.99 ± 0.66 | plasma RvD2n-3 DPA concentration in mice, Mean ± SEM (22 μg/mouse): 3.72 ± 3.41 | plasma RvD3 concentration in mice, Mean ± SEM (22 μg/mouse): 0.18 ± 0.66 | plasma RvD4 concentration in mice, Mean ± SEM (22 μg/mouse): 3.88 ± 0.55 | plasma RvD5 concentration in mice, Mean ± SEM (22 μg/mouse): 0.00 ± 0.00 | plasma RvD5n-3 DPA concentration in mice, Mean ± SEM (22 μg/mouse): 0.00 ± 0.00 | plasma RvD6 concentration in mice, Mean ± SEM (22 μg/mouse): 0.00 ± 0.00 | plasma RvE1 concentration in mice, Mean ± SEM (22 μg/mouse): 0.00 ± 0.00 | plasma RvE2 concentration in mice, Mean ± SEM (22 μg/mouse): 0.96 ± 0.22 | plasma RvE3 concentration in mice, Mean ± SEM (22 μg/mouse): 0.77 ± 0.64 | plasma RvT1 concentration in mice, Mean ± SEM (22 μg/mouse): 9.49 ± 5.15 | plasma RvT2 concentration in mice, Mean ± SEM (22 μg/mouse): 0.00 ± 0.00 | plasma RvT3 concentration in mice, Mean ± SEM (22 μg/mouse): 0.87 ± 0.48 | plasma RvT4 concentration in mice, Mean ± SEM (22 μg/mouse): 2.07 ± 1.16 | ALOX15-derived SPM including RvT1, RvT4 and RvD5n-3 DPA [1]: upregulation | peripheral blood SPM profile [1]: dose-dependent shift
